*1 amine or outer side, *2 acyl side, *3 side chain or, on linkers, in order; H or OH if unused. Where a SMILES comes first, the peptide text is derived from it. Bridges are numbered along the chain shown (N, C = ends). Roman numbers before positions name the chains, in order. [ ]: non-standard residue; d: D form. Actinocin(9to1) = Cc1c2oc3c(C)ccc(C(=O)[*:1])c3nc-2c(C(=O)[*:2])c(N)c1=O; NMeV = CN[C@H](C(=O)O)C(C)C; Sar = CNCC(=O)O
Tests used:
Type in all cases: cell-based, human
HUVEC tube formation [1] = test: Endothelial tube assay (number of tubes, three-dimensional collagen gels); conditions: for IC50: Homo sapiens, HUVEC in collagen gels with bFGF, VEGF and PMA, tubes counted at 48 hr, read-out: inhibition of tube formation, IC50; for inhibition of tube formation (FIG. 3B): at 100 μM; for formation of tube-like structures: endothelial cells in three-dimensional type I collagen lattice
Protocol: In this model, endothelial cells are suspended in a three-dimensional collagen lattice of type I collagen and undergo rapid morphogenesis. Within 4 hr numerous vacuoles are observed in the majority of endothelial cells; at 24 hr the formation of tube-like structures can be observed and at 48 hr an interconnected network of tube-like structures is observed.
Collagen gels were formed by mixing together ice-cold gelatin solution (10× M199, H2O, 0.53M NaHCO3, 200 mM L-glutamine, type I collagen, 0.1M NaOH, 100:27.2:50:10:750:62.5 by volume) and cells in 1× basal medium at a concentration of 3×10^6 cells/ml at a ratio of 4 volumes gelatin solution: 1 volume of cells. After gelation at 37 for 30 min, the gels were overlaid with IX basal medium consisting of M199 supplemented with 1%FBS, 1× ITS, 2 mM L-glutamine, 50 μg/ml ascorbic acid, 26.5 mM NaHCO3, 100 U/ml penicillin and 100 U/mil streptomycin supplemented with 40 ng/ml BFGF, 40 ng/ml VEGF and 80 nM phorbol myristate acetate (PMA). All drugs were added to the IX basal medium immediately after gelation. To quantitate tube formation, the number of tubes per high power (20× field) was determined 48 hr after addition of the basal medium Five independent fields separated by 100 μm optical sections were assessed for each well. Cytotoxicity was assessed using an XTT kit from Boehringer Mannheim (Indianapolis, Ind.).

HUVEC proliferation = test: Proliferation assay (BrdU incorporation); conditions: type I collagen-coated surface, VEGF, bFGF and PMA
Protocol: Cells were cultured in above medium in the presence of drugs or vehicle for 4 hr. 5 μl (100 μM) of 5′-bromo-2′-deoxyuridine (BrdU) was added in a final volume of 100 μl/well and cells were incubated for another 20 hr. BrdU incorporation was evaluated by an ELISA kit from Boehringer Mannheim (Indianapolis, Ind.).

MMP-2 secretion = test: Zymographic assay of HUVEC conditioned media
Protocol: (§1) The presence of gelatinases MMP-2 and -9 in conditioned media from cultured HUVEC in 3-D type I collagen gels was analyzed by zymography. Media from different treatments or from different time points were concentrated and then 10 μl aliquots were mixed with 2 × sample buffer without reducing agent or heating. Samples were loaded on a 10% polyacrilamide gel containing 0.1% gelatin (Novex, San Diego, Calif.) for electrophoresis. In addition to using regular molecular weight markers the MMP-2 and -9 zymographic standards (Chemicon, Temecula, Calif.) were used as standards for gelatinases. The gels were incubated for 30 min at room temperature in renaturing buffer and in developing buffer for overnight at 37° C., and then stained with 0.25% Coomassie brilliant blue (Sigma). Gelatinase activity was identified as lightly stained or clear bands following destaining.

MMP-9 secretion = test: Zymographic assay of HUVEC conditioned media
Protocol: as §1

MMP-9 mRNA = test: Real time RT-PCR (Taqman) assay in HUVEC, Example 7; conditions: for MMP-9 mRNA levels: 40 ng/ml, at 4 h and 24 h
Protocol: (§2) Total RNA was extracted from HUVEC cultured in 3-D type I collagen gels for various times in 1× basal medium supplemented with 40 ng/ml bFGF, 40 ng/ml VEGF, […] PMA or the combination of PMA (80 nM), bFGF and VEGF (40 ng/mil each). […] For all mRNAs evaluated a sample of total RNA (100 ng) was added to a 50 μl RT-PCR reaction mixture according to the manufacturer's protocol (Roche Molecular Systems, Inc., Branchburg, N.J.). The thermal cycling conditions included 1 cycle at 48° C. for 30 min, 1 cycle at 95° C. for 10 min, 40 cycles at 95° C. for 15 s, at 60° C. for 1 min, and finally hold at 25° C. for 2 min. Standard curves for expression of each gene were generated by serial dilution of the total RNA isolated from U937 cells. […] Therefore, the relative mRNA expression of each gene was normalized to the level of GAPDH in the same RNA preparation.

HUVEC tube formation [2] = test: Endothelial tube assay of Example 7 (average tube length, 3-D type I collagen gels)
Protocol: Collagen gels were formed by mixing together ice-cold gelation solution (IOX M199, H2O, 0.53M NaHCO3, 200 mM L-glutamine, type I collagen, 0.1M NaOH, 100:27.2:50:10:750:62.5 by volume) and cells in 1× basal medium (see below) at a concentration of 3×10^6 cells/ml at a ratio of 4 volumes gelation solution: 1 volume of cells (18). After gelation at 37° C. for 30 min, the gels were overlaid with 1× basal medium consisting of M199 supplemented with […], 1× ITS, 2 mM L-glutamine, […] ascorbic acid, 26.5 mM NaHCO3, 100 U/ml penicillin and 100 U/ml streptomycin supplemented with 40 ng/ml bFGF, 40 ng/ml VEGF, 80 nM PMA or the combination of PMA (80 nM), bFGF and VEGF (40 ng/ml each). All drugs were added to the 1× basal medium immediately after gelation. To quantify tube formation, the average tube length was determined by measuring total tube length (long axis) in three consecutive layers of a low power (10×) field using Openlab software (Improvision Inc, England). Each layer was separated by 100 μm.

MMP-2 mRNA = test: Real time RT-PCR (Taqman) assay in HUVEC, Example 7; conditions: 100 μM; 24 h
Protocol: as §2

[3] = at concentrations of up to 100 μM
[4] = PMA 0.8, 8, 80 and 800 nM for 24 h

**Q.** `Cc1c(C)c2c(c(C)c1O)CCC(C)(COc1ccc(CC3SC(=O)NC3=O)cc1)O2` (single isomer, unassigned; (+)) [troglitazone, (+)-5-[[4-[(3,4-dihydro-6-hydroxy-2,5,7,8-tetramethyl-2H-1-benzopyran-2-yl)methoxy]phenyl]methyl]-2,4-thiazolidinedione] was tested. Which IC50 (HUVEC tube formation [1]) did it give?
**A.** 6.2 µM

**Q.** Which “effect on tube formation” value (HUVEC tube formation [1]; 9-cis-retinoic acid 30 μM alone) does the source give for `CC1=C(/C=C/C(C)=C\C=C\C(C)=C\C(=O)O)C(C)(C)CCC1` [9-cis-retinoic acid] here?
**A.** no significant effect

**Q.** `CN(CCOc1ccc(CC2SC(=O)NC2=O)cc1)c1ccccn1` (stereo not shown) [BRL49653, 5-[4-[2-[N-methyl-N-(2-pyridyl)amino]ethoxy]benzyl]thiazolidine-2,4-dione] was tested. Which IC50 (HUVEC proliferation; Homo sapiens, HUVEC, read-out: inhibition of endothelial cell (HUVEC) proliferation, IC50) did it give?
**A.** 15.7 µM

**Q.** Which results are given for `CCCc1c(OCCCCc2nnn[nH]2)ccc(C(C)=O)c1O` [LY 171883]?
**A.** inhibition of tube formation (FIG. 3B) (HUVEC tube formation [1]): do not inhibit; inhibition of tube formation (HUVEC tube formation [1]; [3]): did not significantly inhibit

**Q.** Which “effect on HUVEC proliferation” value (HUVEC proliferation) does the source give for `CCCCC[C@H](O)/C=C/[C@H]1[C@H](O)CC(=O)[C@@H]1CCCCCCC(=O)O` [PGE1] here?
**A.** did not affect

**Q.** How did the “effect on HUVEC proliferation” value (HUVEC proliferation) turn out when `CCCCC[C@H](O)/C=C/[C@H]1[C@H](O)CC(=O)[C@@H]1C/C=C\CCCC(=O)O` [PGE2] was run?
**A.** did not affect

**Q.** `CCCCCCCCCCCCCC(=O)O[C@@H]1[C@@H](C)[C@@]2(O)[C@@H](C=C(CO)C[C@]3(O)C(=O)C(C)=C[C@@H]23)[C@@H]2C(C)(C)[C@]12OC(C)=O` [PMA, phorbol 12-myristate 13-acetate] was tested. Which “MMP-2 secretion into the culture medium” value (MMP-2 secretion; [4]) did it give?
**A.** dose-dependent stimulation

**Q.** And the “active MMP-2 in supernatants compared with either growth factor alone” value (MMP-2 secretion; gelatin zymography, PMA in the absence or presence of FGF and VEGF)?
**A.** more active MMP-2

**Q.** What about the “MMP-9 secretion into the culture medium” value (MMP-9 secretion; [4]) of the same compound?
**A.** dose-dependent stimulation

**Q.** And the “zymogen form of MMP-9 (92 kD) in culture supernatants” value (MMP-9 secretion; gelatin zymography, PMA or PMA in combination with bFGF and VEGF)?
**A.** detected

**Q.** What about the “increase of MMP-9 mRNA levels between 24 h and 4 h” value (MMP-9 mRNA; HUVEC in 3-D collagen gels, PMA 80 nM, bFGF and VEGF 40 ng/ml each) of the same compound?
**A.** more than 2 fold

**Q.** What about the “concentration giving maximal induction of tube formation” value (HUVEC tube formation [2]; [4]) of the same compound?
**A.** 80 nM

**Q.** What about the “tube formation (average tube length)” value (HUVEC tube formation [2]; [4]) of the same compound?
**A.** dose-dependent increase

**Q.** What does the source list for `Cc1cccc(Nc2cc(Cl)nc(SCC(=O)O)n2)c1C` [WY 14643]?
**A.** MMP-2 protein secretion (MMP-2 secretion; 100 μM, 24 h): did not alter; MMP-9 protein secretion (MMP-9 secretion; 100 μM, 24 h): did not alter; inhibition of tube formation (FIG. 3B) (HUVEC tube formation [1]): do not inhibit; inhibition of tube formation (HUVEC tube formation [1]; [3]): did not significantly inhibit; MMP-9 mRNA expression (MMP-9 mRNA; 100 μM, 24 h): did not alter; MMP-2 mRNA expression (MMP-2 mRNA): did not alter; HUVEC tube formation (HUVEC tube formation [2]; 100 μM, 3-D collagen gels): do not inhibit

**Q.** With `Cc1c2oc3c(C)ccc(C(=O)N[C@@H]4C(=O)N[C@H](C(C)C)C(=O)N5CCC[C@H]5C(=O)N(C)CC(=O)N(C)[C@@H](C(C)C)C(=O)O[C@@H]4C)c3nc-2c(C(=O)N[C@@H]2C(=O)N[C@H](C(C)C)C(=O)N3CCC[C@H]3C(=O)N(C)CC(=O)N(C)[C@@H](C(C)C)C(=O)O[C@@H]2C)c(N)c1=O` [actinomycin D] (I: T[dV]P[Sar][NMeV] / II: T[dV]P[Sar][NMeV]; ester I:1-I:C, II:1-II:C; linker I:N-II:N via Actinocin(9to1)) as the compound, how does the “formation of tube-like structures” value (HUVEC tube formation [1]) read?
**A.** completely block

**Q.** For `CC1(COc2ccc(CC3SC(=O)NC3=O)cc2)CCCCC1` (stereo not shown) [ciglitizone], which IC50 (HUVEC tube formation [1]) is on record?
**A.** 2.7 µM

**Q.** With `C[C@@H]1C[C@@H]([C@H](O)CC2CC(=O)NC(=O)C2)C(=O)[C@@H](C)C1` [cycloheximide] as the compound, how does the “formation of tube-like structures” value (HUVEC tube formation [1]) read?
**A.** completely block

**Q.** What does the source list for `CCCCCCCC/C=C\CCCCCCCCCCCC(=O)O` [erucic acid]?
**A.** inhibition of tube formation (HUVEC tube formation [1]; 200 μM): did not significantly inhibit; inhibition of tube formation (FIG. 3B) (HUVEC tube formation [1]): do not inhibit

**Q.** VEGF was tested. Which “MMP-9 mRNA levels” value (MMP-9 mRNA) did it give?
**A.** at or below the limits of detection

**Q.** “bFGF: recombinant basic fibroblast growth factor” was tested. Which “MMP-9 mRNA levels” value (MMP-9 mRNA) did it give?
**A.** at or below the limits of detection
